What was measured:
Myzus persicae [1] = assay: B1: Myzus persicae (Green Peach Aphid), mixed population, sachet test; format: in vivo; conditions: 144 h, 12.5 ppm in 30% sucrose solution, 6 days after infestation, read-out: control of Myzus persicae (mortality, feeding activity)
Protocol: B1: Myzus persicae (Green Peach Aphid) (Mixed Population, Sachet Test)
Each well of a 24-well microtiter plate is filled with 0.6 ml 30% sucrose solution, containing 12.5 ppm of the test compounds. For producing the sachets, the wells are covered with stretched parafilm and infested with a mixed population of Myzus persicae. 6 days after the infestation, samples are checked for mortality (feeding activity).

Myzus persicae [2] = assay: B2: Myzus persicae (Green Peach Aphid), mixed population, systemic/feeding activity, curative; format: in vivo; conditions: 144 h, roots of infested pea seedlings in test solution of 6 ppm, 6 days after introduction, read-out: control of Myzus persicae (mortality)
Excerpt: B2: Myzus persicae (Green Peach Aphid) (Mixed Population, Systemic/Feeding Activity, Curative)
Roots of pea seedlings, infested with an aphid population of mixed ages, are placed directly in the test solutions of 6 ppm. 6 days after introduction, samples are checked for mortality and special effects on the plant.

[3] = test system: African bean aphid (Aphis craccivora); assay: Example 1: sugarbeet seed treatment, reduction of African bean aphid; format: in vivo; conditions: infested 14 days after sowing, counted 7 days after infestation
Protocol: (§1) Sugarbeet seeds are treated with P1.1, P1.5, P1.6, P1.8, P1.32 or P1.38 at rates of 0.1, 0.3 and 0.6 mg a.i./seed. The seeds are sown into 9-cm pots filled with 280 mL of soil. After placing the seeds on the soil surface they are covered with 50 mL of soil. Before and during the bioassays, the plants are grown in greenhouse chambers at 25° C. during daytime, 23° C. during night, 50-60% rH, a 14-hour photoperiod and artificial lighting when natural light fell below 20 kLux. After sowing, the pots are transferred to the greenhouse chambers, set up in a random fashion and are irrigated as necessary from above. After 14 days, the plants are infested with African bean aphid (Aphis craccivora) by placing one infested pea seedling containing approximately 150 aphids of a population of mixed developmental stages onto each plant. Seven days after infestation, the number of aphids is counted per plant. Each treatment group is replicated 10 times. Each replicate contains 1 plant.

[4] = test system: cabbage aphid (Myzus persicae); assay: Example 2: Chinese cabbage seed treatment, reduction of cabbage aphid; format: in vivo; conditions: infested 14 days after sowing, counted 7 days after infestation
Protocol: as §1, with “Chinese cabbage” for “Sugarbeet”, “of” for “of 0.1,”, “cabbage” for “African bean”, “(Myzus persicae)” for “(Aphis craccivora)”

SMILES	mortality at 12.5 ppm (Myzus persicae [1]) [%]	mortality at 6 ppm (Myzus persicae [2]) [%]	Efficacy, % (reduction of aphids compared to untreated control plants) ([3]; 0.1 mg/seed) [%]	Efficacy, % (reduction of aphids compared to untreated control plants) ([4]; 0.3 mg/seed) [%]	Efficacy, % (reduction of aphids compared to untreated control plants) ([4]; 0.6 mg/seed) [%]	Efficacy, % (reduction of aphids compared to untreated control plants) ([3]; 0.3 mg/seed) [%]	Efficacy, % (reduction of aphids compared to untreated control plants) ([3]; 0.6 mg/seed) [%]	melting point [°C]
NC1=NS(=O)(=O)c2cccc(Cl)c21 [P1.5, 3-Amino-4-chlorobenzo[d]isothiazole-1,1-dioxide]	100	100	87	11	64			
COc1cccc2c1C(NC(C)=O)=NS2(=O)=O [P1.8, 3-Acetylamino-4-methoxybenzo[d]isothiazole-1,1-dioxide]			8	0	28	72	95	242 to 245
COc1cccc2c1C(N)=NS2(=O)=O [P1.1, 3-Amino-4-methoxybenzo[d]isothiazole-1,1-dioxide]	100	100	41	10	45	69	92	

From patent US20100173959A1, “METHOD OF PROTECTING A PLANT PROPAGATION MATERIAL, A PLANT, AND/OR PLANT ORGANS” (SYNGENTA CROP PROTECTION, INC., priority 2007, published 2010)
